Drawing on patent publication US20220348565A1, “PHARMACEUTICAL COMPOUNDS” (SENTINEL ONCOLOGY LIMITED, priority 2019, published 2022), this text covers percent of control kinase binding to immobilized ligand for one molecule.

Common to all, as to assay: DiscoverX KinomeScreen kinase selectivity competition binding assay
Experiment [1] addresses T1, panel of ninety-seven kinases (Homo sapiens, UniProt O15075).
T1 construct: purchased DiscoverX; host or cells: T7 phage in E. coli (BL21-derived) for most kinases; HEK-293 for the rest
The note with it: DCLK1; read-out: % Ctrl @ 3 μM. As for the experimental part: (§1) Atropisomer A-2 has been tested for off-target activity against a panel of ninety-seven kinases distributed across the kinome at a concentration of 3 μM using the DiscoverX KinomeScreen assay. The DiscoverX KinomeScreen assay is a site-directed competition binding assay which measures the binding affinity of a compound to a kinase, by use of a solid supported control compound which can bind or capture the kinases in solution. In the absence of a kinase-inhibitor test compound, all of the kinase will bind to the solid support. If a kinase-inhibitor test compound is added to the assay mix, the amount of kinase binding to the solid support will be reduced, the extent of reduction being dependent on the potency of the test compound as a kinase inhibitor. […] For most assays, kinase-tagged T7 phage strains were grown in parallel in 24-well blocks in an E. coli host derived from the BL21 strain. E. coli were grown to log-phase and infected with T7 phage from a frozen stock (multiplicity of infection=0.4) and incubated with shaking at 32° C. until lysis (90-150 minutes). The lysates were centrifuged (6,000×g) and filtered (0.2 μm) to remove cell debris. The remaining kinases were produced in HEK-293 cells and subsequently tagged with DNA for qPCR detection. Streptavidin-coated magnetic beads were treated with biotinylated small molecule ligands for 30 minutes at room temperature to generate affinity resins for kinase assays. The liganded beads were blocked with excess biotin and washed with blocking buffer (SeaBlock (Pierce), 1% BSA, 0.05% Tween 20, 1 mM DTT) to remove unbound ligand and to reduce non-specific phage binding. […] Test compounds were prepared as 40× stocks in 100% DMSO and directly diluted into the assay. All reactions were performed in polypropylene 384-well plates in a final volume of 0.02 ml. […] The beads were then re-suspended in elution buffer (1×PBS, 0.05% Tween 20, 0.5 μM non-biotinylated affinity ligand) and incubated at room temperature with shaking for 30 minutes. The kinase concentration in the eluates was measured by qPCR. Compounds that bind the kinase active site and directly (sterically) or indirectly (allosterically) prevent kinase binding to the immobilized ligand, will reduce the amount of kinase captured on the solid support. […] The strength of binding of the test molecule to the kinase can be expressed as the percent control (% Ctrl) The compound(s) were screened at 3000 nM concentration, and results for primary screen binding interactions are reported as ‘% Ctrl’, where lower numbers indicate stronger hits in the matrix on the following page(s). [formula] • negative control=DMSO (100% Ctrl) • positive control=control compound (0% Ctrl)

For experiment [2], the target named is T2, panel of ninety-seven kinases (Homo sapiens, UniProt P42336).
T2 construct: purchased DiscoverX; host or cells: T7 phage in E. coli (BL21-derived) for most kinases; HEK-293 for the rest
As to conditions: PIK3CA; read-out: % Ctrl @ 3 μM. How it is done:
as §1

Experiment [3] addresses T3, panel of ninety-seven kinases (Homo sapiens, UniProt Q9UPE1).
T3 construct: purchased DiscoverX; host or cells: T7 phage in E. coli (BL21-derived) for most kinases; HEK-293 for the rest
The note with it: SRPK3; read-out: % Ctrl @ 3 μM. As for the experimental part:
as §1

Experiment [4] concerns the target T4, panel of ninety-seven kinases (Homo sapiens, UniProt O96013).
T4 construct: purchased DiscoverX; host or cells: T7 phage in E. coli (BL21-derived) for most kinases; HEK-293 for the rest
As to conditions: PAK4; read-out: % Ctrl @ 3 μM. As for the experimental part:
as §1

For experiment [5], the target named is T5, panel of ninety-seven kinases (Homo sapiens, UniProt O75116).
T5 construct: purchased DiscoverX; host or cells: T7 phage in E. coli (BL21-derived) for most kinases; HEK-293 for the rest
The note with it: ROCK2; read-out: % Ctrl @ 3 μM. As for the experimental part:
as §1

The target in experiment [6] is T6, panel of ninety-seven kinases (Homo sapiens, UniProt P04629).
T6 construct: purchased DiscoverX; host or cells: T7 phage in E. coli (BL21-derived) for most kinases; HEK-293 for the rest
The note with it: NTRK1; read-out: % Ctrl @ 3 μM. As for the experimental part: as §1

Experiment [7] addresses T7, panel of ninety-seven kinases (Homo sapiens, UniProt P21802).
T7 construct: purchased DiscoverX; host or cells: T7 phage in E. coli (BL21-derived) for most kinases; HEK-293 for the rest
As to conditions: FGFR2; read-out: % Ctrl @ 3 μM. How it is done:
as §1

For experiment [8], the target named is T8, panel of ninety-seven kinases (Homo sapiens, UniProt P48736).
T8 construct: purchased DiscoverX; host or cells: T7 phage in E. coli (BL21-derived) for most kinases; HEK-293 for the rest
The note with it: PIK3CG; read-out: % Ctrl @ 3 μM. As for the experimental part:
as §1

For experiment [9], the target named is T9, panel of ninety-seven kinases (Homo sapiens, UniProt P04626).
T9 construct: purchased DiscoverX; host or cells: T7 phage in E. coli (BL21-derived) for most kinases; HEK-293 for the rest
The note with it: ERBB2; read-out: % Ctrl @ 3 μM. How it is done: as §1

For experiment [10], the target named is T10, panel of ninety-seven kinases (Homo sapiens, UniProt P43403).
T10 construct: purchased DiscoverX; host or cells: T7 phage in E. coli (BL21-derived) for most kinases; HEK-293 for the rest
The note with it: ZAP70; read-out: % Ctrl @ 3 μM. How it is done: as §1

The target in experiment [11] is T11, panel of ninety-seven kinases (Homo sapiens, UniProt P04049).
T11 construct: purchased DiscoverX; host or cells: T7 phage in E. coli (BL21-derived) for most kinases; HEK-293 for the rest
As to conditions: RAF1; read-out: % Ctrl @ 3 μM. How it is done:
as §1

In experiment [12] the target is T12, panel of ninety-seven kinases (Homo sapiens, UniProt P08581).
T12 construct: purchased DiscoverX; host or cells: T7 phage in E. coli (BL21-derived) for most kinases; HEK-293 for the rest
The note with it: MET; read-out: % Ctrl @ 3 μM. How it is done: as §1

Experiment [13] addresses T13, panel of ninety-seven kinases (Homo sapiens, UniProt O15530).
T13 construct: purchased DiscoverX; host or cells: T7 phage in E. coli (BL21-derived) for most kinases; HEK-293 for the rest
The note with it: PDPK1; read-out: % Ctrl @ 3 μM. How it is done:
as §1

Experiment [14] deals with T14, panel of ninety-seven kinases (Homo sapiens, UniProt P11309).
T14 construct: purchased DiscoverX; host or cells: T7 phage in E. coli (BL21-derived) for most kinases; HEK-293 for the rest
As to conditions: PIM1; read-out: % Ctrl @ 3 μM. As for the experimental part:
as §1

The target of experiment [15] is T15, panel of ninety-seven kinases (Homo sapiens, UniProt Q13153).
T15 construct: purchased DiscoverX; host or cells: T7 phage in E. coli (BL21-derived) for most kinases; HEK-293 for the rest
The note with it: PAK1; read-out: % Ctrl @ 3 μM. As for the experimental part: as §1

Experiment [16] concerns the target T16, panel of ninety-seven kinases (Homo sapiens, UniProt Q9BWU1).
T16 construct: purchased DiscoverX; host or cells: T7 phage in E. coli (BL21-derived) for most kinases; HEK-293 for the rest
The note with it: CDK19; read-out: % Ctrl @ 3 μM. As for the experimental part:
as §1

Experiment [17] concerns the target T17, panel of ninety-seven kinases (Homo sapiens, UniProt P07949).
T17 construct: purchased DiscoverX; host or cells: T7 phage in E. coli (BL21-derived) for most kinases; HEK-293 for the rest
As to conditions: RET; read-out: % Ctrl @ 3 μM. As for the experimental part:
as §1

For experiment [18], the target named is T18, panel of ninety-seven kinases (Homo sapiens, UniProt P22607).
T18 construct: purchased DiscoverX; host or cells: T7 phage in E. coli (BL21-derived) for most kinases; HEK-293 for the rest
As to conditions: FGFR3; read-out: % Ctrl @ 3 μM. How it is done: as §1

In experiment [19] the target is T19, panel of ninety-seven kinases (Homo sapiens, UniProt Q9Y6R4).
T19 construct: purchased DiscoverX; host or cells: T7 phage in E. coli (BL21-derived) for most kinases; HEK-293 for the rest
The note with it: MAP3K4; read-out: % Ctrl @ 3 μM. As for the experimental part:
as §1

Experiment [20] concerns the target T20, panel of ninety-seven kinases (Homo sapiens, UniProt Q9BUB5).
T20 construct: purchased DiscoverX; host or cells: T7 phage in E. coli (BL21-derived) for most kinases; HEK-293 for the rest
The note with it: MKNK1; read-out: % Ctrl @ 3 μM. As for the experimental part:
as §1

For experiment [21], the target named is T21, panel of ninety-seven kinases (Homo sapiens, UniProt Q16539).
T21 construct: purchased DiscoverX; host or cells: T7 phage in E. coli (BL21-derived) for most kinases; HEK-293 for the rest
The note with it: MAPK14; read-out: % Ctrl @ 3 μM. How it is done: as §1

Molecules are shown by their SMILES.

With `CN(C)CCNC(=O)c1ccc(-c2ccc(-c3ccc(Cl)cc3)n2-c2ccccc2C(F)(F)F)cc1` (single isomer, unassigned) [Atropisomer A-2, 4-[5-(4-chlorophenyl)-1-[2-(trifluoromethyl)phenyl]pyrrol-2-yl]-N-[2-(dimethylamino)ethyl]benzamide], the percent of control kinase binding to immobilized ligand at 3 µM turned out to be 87% in experiment [1]; 100% in experiment [2]; 71% in experiment [3]; 100% in experiment [4]; 88% in experiment [5]; 100% in experiment [6]. Further, the percent of control kinase binding to immobilized ligand at 3 µM in experiment [7] is 85%; in experiment [8] it was 100%; in experiment [9], 66%; in [10], 92%; in experiment [11], 92%; in [12], 100%. Further, the percent of control kinase binding to immobilized ligand at 3 µM is 96% in experiment [13]; 99% in [14]; 87% in experiment [15]; 81% in experiment [16]; 95% in experiment [17]; 92% in experiment [18]. Also, the percent of control kinase binding to immobilized ligand at 3 µM in experiment [19] stood at 93%; in experiment [20], 92%; in experiment [21] it was 100%.
